Results taken from US20230285556A1, “METHODS AND COMPOSITIONS FOR TREATING CANCER” (Omeros Corporation, priority 2021, published 2023).
Blank lines part the entries; values can stand above or below the molecule they belong to.

What was measured:
GPR174 [1] = target: T1, GPR174 (Homo sapiens, UniProt Q9BXC1); experiment: Human GPR174 CRE activity / Gs signaling; type: cell-based
Method: (§1) Where present, multiple EC50 values correspond to values obtained in separate experiments. […] The activity of the compounds was tested as described in US 20200276190, the disclosure of which is incorporated herein by reference.

human CD8 T cells [2] = experiment: Example 5: human CD8 T cell expansion with cAMP pathway and p38 inhibitors, IL-2 after restimulation; type: cell-based; conditions: 500 μM Rp-8-Br-cAMPS, 0.5 μM doramapimod, 10 μM HJC-0197, 5 μM ESI-09
Method: DMSO vehicle control • 2. […] 500 μM Rp-8-Br-cAMPS • 4. […] 0.5 μM doramapimod • 6. Media control
or the following individual conditions for the experiment shown in FIG. 8, each ±0.5 μM doramapimod: • 1. DMSO vehicle control • 2. 500 μM Rp-8-Br-cAMPS • 3. […] 5 μM ESI-09
On days 3, 5, and 7, cultures were washed and seeded at 0.5 cells million per well with the same small molecule inhibitor conditions, and with IL-7 and IL-15. On day 10, cells were washed twice (12 mL media each), and restimulated in quadruplicate in 96-well round-bottom plates with the following conditions: • 0.1 mL X-VIVO™ 15 media (Lonza) • 0.05 million cells from each condition • 0.1 million Human T-Activator CD3/CD28 Dynabeads® (ThermoFisher)
(§2) After overnight culture, supernatants were harvested and analyzed for IL-2 content (MesoScale Discovery).

human CD8 T cells [3] = experiment: Example 3: human CD8 T cell 10-day expansion with IL-7+IL-15 and inhibitors, IL-2 after restimulation; type: cell-based; conditions: 300 nM Compound #10, 500 nM Compound #49, 100 nM ZM-241385, 18 hours restimulation
Method: Purified human CD8 T cells were cultured in 24-well plates with the following conditions per well: • 2 mL X-VIVO™ 15 media (Lonza) • 1 million human CD8 T cells • 2 million Human T-Activator CD3/CD28 Dynabeads® (ThermoFisher) • 10 ng/mL human IL-7 (R&D Systems) • 10 ng/mL human IL-15 (R&D Systems)
and the following individual conditions for FIG. 4: • 1. DMSO vehicle control • 2. […] 300 nM GPR174 inhibitor Compound #10 • 4.
On days 4 and 7 (FIG. 4) or days 3, 5, and 7 (FIG. 5), cultures were washed and seeded at 0.5 cells million per well with the same GPR174 and A2A inhibitor conditions, and with 10 ng/mL IL-7 and 10 ng/mL IL-15.
After 18 hours of culture, supernatants were harvested and analyzed for IL-2 (MesoScale Discovery).

[4] = system: OT-I TCR transgenic CD8 T cells; experiment: Example 8: OT-I CD8 T cell 9-day expansion with PKA, p38, PI3Kδ inhibitors, IL-2 after restimulation with EG7 cells; type: cell-based, mouse; conditions: Idelalisib (agent together with 1 μM idelalisib)
Method: DMSO vehicle control • 2. 0.5 μM doramapimod • 3. 500 μM Rp-8-Br-cAMPS • 4. 0.5 μM doramapimod+500 μM Rp-8-Br-cAMPS • 5. 1 μM idelalisib • 6. 1 μM idelalisib+0.5 μM doramapimod • 7. 1 μM idelalisib+500 μM Rp-8-Br-cAMPS • 8. 1 μM idelalisib+0.5 μM doramapimod+500 μM Rp-8-Br-cAMPS
On days 2, 4, 6, and 8, cells were counted, washed and reseeded at 0.5 million per well in 2 mL media with the same 8 conditions and with recombinant mouse IL-2 and IL-7 (5 ng/mL each). […] Cells were also washed three times (12 mL media each), and restimulated in quintuplicate in 96-well round-bottom plates with the following conditions: • 0.1 mL RP10 media • 0.05 million OT-I T cells from each condition • 0.05 million EG7 cells
as §2

[5] = system: OT-I TCR transgenic CD8 T cells; experiment: Example 9: OT-I CD8 T cell 10-day expansion, immunophenotyping and IL-2 capacity; type: cell-based, mouse
GPR174 [6] = target: T1, GPR174; experiment: CRA (EC50) of GPR174 inhibitor compounds, tested as described in US 20200276190; type: cell-based; conditions: multiple values = separate experiments
Method: as §1

T1 sequence (Q9BXC1 whole entry): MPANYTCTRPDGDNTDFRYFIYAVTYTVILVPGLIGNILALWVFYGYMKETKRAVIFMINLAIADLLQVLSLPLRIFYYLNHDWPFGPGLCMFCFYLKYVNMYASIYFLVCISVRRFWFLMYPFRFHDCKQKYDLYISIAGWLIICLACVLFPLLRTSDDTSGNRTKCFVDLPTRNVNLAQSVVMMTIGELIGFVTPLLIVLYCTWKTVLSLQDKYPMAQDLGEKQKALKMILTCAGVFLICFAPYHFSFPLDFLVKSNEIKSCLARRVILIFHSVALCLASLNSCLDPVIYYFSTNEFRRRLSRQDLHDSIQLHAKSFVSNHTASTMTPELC

Human GPR174 CRE Activity (type of modulation) (GPR174 [1]): Antagonist
EC50 (GPR174 [6]): 0.2 µM
Compound: CCCC(=O)c1ccc(N2CCN(S(=O)(=O)c3ccc(C)cc3)CC2)c(F)c1 [Compound 4]
competition with the GPR174 agonist LysoPS (GPR174 [1]): found to compete with the GPR174 agonist LysoPS

Human GPR174 CRE Activity (type of modulation) (GPR174 [1]): Antagonist or allosteric modulator
EC50 (GPR174 [6]): 2.7 µM
Compound: Cc1cc(Cc2ccc(NC(=O)c3cccs3)c(C)c2)ccc1NC(=O)c1cccs1 [Compound 21]

Human GPR174 CRE Activity (type of modulation) (GPR174 [1]): Antagonist or allosteric modulator
Compound: Cc1ccc(-c2nnc(Nc3ccccc3)c3ccccc23)cc1S(N)(=O)=O [Compound 19]

Human GPR174 CRE Activity (type of modulation) (GPR174 [1]): Antagonist or allosteric modulator
EC50 (GPR174 [6]): 4.1 µM
Compound: CC(=O)c1ccc(N2CCN(C(=O)c3ccc(F)cc3)CC2)c(F)c1 [Compound 3]

EC50 (GPR174 [6]): 1.4 µM
Compound: O=C(c1ccccc1)N1CCN(c2cc(N3CCCCC3)c(F)cc2[N+](=O)[O-])CC1 [Compound 6]

Second part, the molecule before the results:

Compound: O=C(N/N=C/c1cc(Cl)ccc1O)c1ccncc1 [Compound 57]
Human GPR174 CRE Activity (type of modulation) (GPR174 [1]): Antagonist or allosteric modulator

Compound: Cc1ccc(C)c(CSc2nc(C3CCCC3)c(C#N)c(=O)[nH]2)c1 [HJC-0197]
IL-2 production following restimulation, fold above vehicle control (FIG. 8) (human CD8 T cells [2]): absent or negligible

Compound: CC(C)Oc1ccc(C2C3=C(CCCC3=O)NC3=C2C(=O)c2ccccc23)cc1 (stereo not shown) [Compound 49]
IL-2 production following restimulation, fold vs vehicle (FIG. 5) (human CD8 T cells [3]): 1.9 fold

Compound: CC[C@H](Nc1ncnc2[nH]cnc12)c1nc2cccc(F)c2c(=O)n1-c1ccccc1 [idelalisib]
Fold-change in IL-2 production relative to Vehicle control [4]: 24.0
TCF-1 positive cells ([5]; Vehicle 10%): 27%
CTLA-4 positive cells ([5]; Vehicle 41%): 28%
PD-1 positive cells ([5]; Vehicle 75%): 75%
CD39 positive cells ([5]; Vehicle 87%): 63%
TIM-3 positive cells ([5]; Vehicle 88%): 60%
CD69 positive cells ([5]; Vehicle 95%): 74%
